Results taken from patent publication US5112947A, “Peptides, and antidementia agents containing the same” (Nippon Chemiphar Co., Ltd., priority 1989, dated 1992).
Non-standard residues stand in square brackets, D forms with d. Residues, ends and D or L forms follow the SMILES beside them. *: point of attachment. Cys(free,S-linked) = N[C@@H](CS*)C(=O)O; pGlu = O=C1CC[C@@H](C(=O)O)N1; Aze = O=C(O)[C@@H]1CCN1

Each compound was assayed on male Wistar rats (assay: one-trial passive avoidance test: improvement of experimental retrograde amnesia by cycloheximide). Settings: dose 0.1 ng/kg, given 1 h before electro-shock (0.5 mA); cycloheximide 2.7 to 3.0 mg/kg s.c.; retention tested at 48 hours; control = cycloheximide alone.
Format: in vivo, rat
Method: 221, pp. […], 1983. […] At 48 hours after the administration was made, memory retention of the rats were tested.

Row | SMILES | Effect (%): ratio of response latent period of each group to that of the control groups [%]
1 | N=C(N)NCCC[C@H](NC(=O)[C@@H]1CCCN1C(=O)[C@H](CO)NC(=O)[C@H](CC(N)=O)NC(=O)[C@@H]1CCC(=O)N1)C(=O)NCC(N)=O [Example 21, pGlu-Asn-Ser-Pro-Arg-Gly-NH2 acetate] (HELM PEPTIDE1{[Glp].N.S.P.R.G.[am]}$$$$V2.0) | 353
2 | N=C(N)NCCC[C@H](NC(=O)[C@@H]1CCCN1C(=O)[C@H](CO)NC(=O)[C@@H]1CCCN1)C(=O)O [Example 27, H-Pro-Ser-Pro-Arg-OH acetate] (H-PSPR-OH) | 213

Same assay, conditions: dose 1 ng/kg, given 1 h before electro-shock (0.5 mA); cycloheximide 2.7 to 3.0 mg/kg s.c.; retention tested at 48 hours; control = cycloheximide alone

Row | SMILES | Effect (%): ratio of response latent period of each group to that of the control groups [%]
3 | N=C(N)NCCC[C@H](NC(=O)[C@@H]1CCN1C(=O)[C@H](CSSC[C@H](N)C(=O)O)NC(=O)[C@H](CC(N)=O)NC(=O)[C@@H]1CCC(=O)N1)C(=O)NCC(N)=O [Example 6] ([pGlu]NC(Cys(free,S-linked))[Aze]RG-NH2) | 239
4 | C[C@H](NC(=O)[C@@H](N)CC(N)=O)C(=O)N1CCC[C@H]1C(=O)N[C@@H](CCCNC(=N)N)C(=O)O [Example 9, H-Asn-Ala-Pro-Arg-OH acetate] (H-NAPR-OH) | 460
5 | N=C(N)NCCC[C@H](NC(=O)[C@@H]1CCCCN1C(=O)[C@H](CO)NC(=O)[C@@H](N)CC(N)=O)C(=O)O [Example 12, H-Asn Ser-Pip-Arg-OH acetate] (HELM PEPTIDE1{N.S.[O=C([C@@H]1CCCCN1[*:1])[*:2]].R}$$$$V2.0) | 235
6 | N=C(N)NCCC[C@H](NC(=O)[C@@H]1CCCN1C(=O)[C@H](CSSC[C@H](N)C(=O)O)NC(=O)[C@@H]1CCCN1)C(=O)NCC(N)=O [Example 17] (H-PC(Cys(free,S-linked))PRG-NH2) | 365
